According to patent US6242224A, “Maltohexaose and maltoheptaose-forming amylase, and its preparation and uses” (Kabushiki Kaisha Mayashibara Seibutsu Kagaku Kenkyujo, priority 1994, dated 2001):

Test system: AMYLASE
Assay: Inhibition or promotion of AMYLASE activity by ions and EDTA
Type: biochemical, Alcaligenes latus D2271
Conditions: for inhibition of enzyme activity: one mM metal ion
Method: The activity of the present AMYLASE is assayed as follows: 0.2 ml of an enzyme solution is added to 5 ml of 0.3 w/v % soluble starch in 20 mM phosphate buffer (pH 5.5) containing 1 mM CaCl2), and the mixture solution is incubated at 40° C. for 10 min, followed by sampling 0.5 ml of the resultant solution, and adding the solution to 15 ml of 0.02N sulfate solution to suspend the enzymatic reaction. The resultant is mixed with 0.2 ml of 0.1N iodine solution, stirred, allowed to stand at 25° C. for 15 min, and its absorbance at a wave length of 660 nm determined. One unit activity of the present AMYLASE is defined as the amount of enzyme which diminishes the iodine coloration of 15 mg soluble starch when reacted at 40° C. for 10 min.
Effects of temperature and pH on the enzyme activity were studied in the presence of calcium chloride in accordance with the assay as used for determining the enzyme activity. […] The thermal stability of the enzyme was determined by incubating it in 20 mM acetate buffer containing 5 mM calcium chloride (pH 6.0) at different temperatures for 60 min, cooling the buffers, and assaying the remaining enzyme activity in each buffer. The pH stability of the enzyme was determined by incubating it in 20 mM acetate buffer having different pHs at 40° C. for one hour, adjusting the buffer to pH 6.0, and assaying the remaining enzyme activity in each buffer.

Compound: [Pb+2] [lead ion]
- inhibition of enzyme activity: inhibited

Compound: [Cu+2] [copper ion]
- inhibition of enzyme activity: inhibited

Compound: [Zn+2] [zinc ion]
- inhibition of enzyme activity: inhibited

Compound: [Hg+2] [mercury ion]
- inhibition of enzyme activity: inhibited

Compound: [Ca+2] [calcium ion]
- promotion of activity and stabilization of AMYLASE (calcium ion): promoted its activity and stabilized
